Measured values from patent US5948791A, “Quinoline derivatives for treating malaria” (Hoffmann-La Roche Inc., priority 1995, dated 1999).
Converted amounts (≈) assume the structure as drawn. Read-outs that look alike come from different tables or passages of the source.

Tests used:
[1] = test system: Plasmodium falciparum strain NF54; assay: Growth inhibition of Plasmodium falciparum NF54 (chloroquine-sensitive) in vitro, [G-3H]-hypoxanthin incorporation; assay type: cell-based; details: chloroquine-sensitive strain NF54, 72 h, read-out: IC50 for P. falciparum NF54
Method in brief: (§1)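 Asynchronous intraerythrocytic cultures in human A+ erythrocytes (0.7% parasitemia, 2.5% suspension) in RPMI 1640 with HEPES, NaHCO3 and human serum, exposed to compound titrated over 6-7 steps for 72 h at 37° C, 3% O2. Growth by [G-3H]-hypoxanthin incorporation against untreated controls; IC50 by logit regression.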

Plasmodium falciparum K1 = assay: Growth inhibition of Plasmodium falciparum K1 (chloroquine-resistant) in vitro, [G-3H]-hypoxanthin incorporation; assay type: cell-based, Plasmodium falciparum (strain K1); details: for IC50: Plasmodium falciparum, K1, 72 h, read-out: IC50 for P. falciparum K1; for Resistance index: ratio of the IC50 for K1 and the IC50 for NF54
Method in brief: as §1

Plasmodium berghei = assay: animal or person; assay type: in vivo, Plasmodium berghei (strain ANKA) in mice; details: Plasmodium berghei, mice, blood smears 48 h after treatment
Method in brief: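 Male albino mice (~25 g) infected i.v. on D0 with P. berghei ANKA (0.2 ml of 10^8 parasitized erythrocytes/ml); single s.c. and p.o. dose 24 h post-infection, 10 mg/kg screen then titration.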

[2] = po, single peroral dose of 10 mg/kg, read-out: Growth inhibition in % after po administration (GI%, percentage reduction of the parasitemia)
[3] = sc, single subcutaneous dose of 10 mg/kg, read-out: Growth inhibition in % after sc administration (GI%, percentage reduction of the parasitemia)

Compound | IC50 [1] [ng/mL] | IC50 (Plasmodium falciparum K1) [ng/mL] | Resistance index (Plasmodium falciparum K1) | inhibition in vivo at 10 mg/kg (Plasmodium berghei; [2]) [%] | inhibition in vivo at 10 mg/kg (Plasmodium berghei; [3]) [%]
Cl.Cl.Clc1ccc2c(N[C@H]3CC[C@H](NCCc4ccc(Cl)c(Cl)c4)CC3)ccnc2c1 [Example 99, trans-N1-(7-Chloro-quinolin-4-yl)-N4-[2-(3,4-dichloro-phenyl)-ethyl]-cyclohexane-1,4-diamine dihydrochloride] | 3.3 | 4.2 | 1.3 | 91 | 96
COc1ccc(CN[C@H]2CC[C@H](Nc3ccnc4cc(Cl)ccc34)CC2)cc1.Cl.Cl [Example 100, trans N1-(7-Chloro-quinolin-4-yl)-N4-(4-methoxy-benzyl)-cyclohexane-1,4-diamine dihydrochloride] | 1.9 | 4 | 2.1 | 14 | 99
Cl.Cl.Clc1ccc2c(N[C@H]3CC[C@H](NCCc4c(Cl)cccc4Cl)CC3)ccnc2c1 [Example 101, trans-N1-(7-Chloro-quinolin-4-yl)-N4-[2-(2,6-dichloro-phenyl)-ethyl]-cyclohexane-1,4-diamine dihydrochloride] | 2.7 | 2.9 | 1.1 | 72 | 84
Cl.Cl.Clc1ccc2c(N[C@H]3CC[C@H](NCc4ccc(Cl)c(Cl)c4)CC3)ccnc2c1 [Example 102, trans N1-(7-Chloro-quinolin-4-yl)-N4-(3,4-dichloro-benzyl)-cyclohexane-1,4-diamine dihydrochloride] | 2.1 | 3.6 | 1.7 | 72 | 81
Cl.Cl.Clc1ccc2c(N[C@H]3CC[C@H](NCc4ccc5c(c4)OCO5)CC3)ccnc2c1 [Example 103, trans-N1 -Benzo[1,3]dioxol-5-ylmethyl-N4-(7-chloro-quinolin-4-yl)-cyclohexane-1,4-diamine dihydrochloride] | 2.1 | 4.6 | 2.2 | 89 | 99.8
COc1cc(CCN[C@H]2CC[C@H](Nc3ccnc4cc(Cl)ccc34)CC2)ccc1O.Cl.Cl [Example 104, trans-4-{2-[4-(7-Chloro-quinolin-4-ylamino)-cyclohexylamino]-ethyl}-2-methoxy-phenol dihydrochloride] | 3.6 | 20.2 | 5.6 | 63 | 100
COc1cccc(CCN[C@H]2CC[C@H](Nc3ccnc4cc(Cl)ccc34)CC2)c1OC.Cl.Cl [Example 105, trans-N1-(7-Chloro-quinolin-4-yl)-N4-[2-(2,3-dimethoxy-phenyl)-ethyl]-cyclohexane-1,4-diamine dihydrochloride] | 3.4 | 15.3 | 4.5 | 55 | 99
COc1cc(CN[C@H]2CC[C@H](Nc3ccnc4cc(Cl)ccc34)CC2)cc(OC)c1 [Example 106, trans-N1-(7-Chloro-quinolin-4-yl)-N4-(3,5-dimethoxy-benzyl)-cyclohexane-1,4-diamine] | 1.5 (≈ 3.52 nM) | 4.4 (≈ 10.3 nM) | 2.9 | 98 | 99.5
Cl.Cl.Clc1cccc(CN[C@H]2CC[C@H](Nc3ccnc4cc(Cl)ccc34)CC2)c1 [Example 107, trans-N1-(3-Chloro-benzyl)-N4-(7-chloro-quinolin-4-yl)-cyclohexane-1,4-diamine dihydrochloride] | 1.4 | 3.4 | 2.4 | 84 | 95
COc1cc(OC)c(CN[C@H]2CC[C@H](Nc3ccnc4cc(Cl)ccc34)CC2)c(OC)c1.Cl.Cl [Example 108, trans N1-(7-Chloro-quinolin-4-yl)-N4-(2,4,6-trimethoxy-benzyl)-cyclohexane-1,4-diamine dihydrochloride] | 4.6 | 18.4 | 4.0 | 110 | 100
Cl.Cl.Clc1ccc(CN[C@H]2CC[C@H](Nc3ccnc4cc(Cl)ccc34)CC2)c(Cl)c1 [Example 109, trans-N1-(7-Chloro-quinolin-4-yl)-N4-(2,4-dichloro-benzyl)-cyclohexane-1,4-diamine dihydrochloride] | 1.8 | 3.8 | 2.1 | 75 | 91
COc1ccc(CN[C@H]2CC[C@H](Nc3ccnc4cc(Cl)ccc34)CC2)cc1OC.Cl.Cl [Example 110, trans-N1-(7-Chloro-quinolin-4-yl)-N4-(3,4-dimethoxy-benzyl)-cyclohexane-1,4-diamine dihydrochloride] | 2.8 | 17.2 | 6.1 | 45 | 99.6
COc1ccc(CN[C@H]2CC[C@H](Nc3ccnc4cc(Cl)ccc34)CC2)c(OC)c1.Cl.Cl [Example 111, trans-N1 (7-Chloro-quinolin-4-yl)-N4-(2,4-dimethoxy-benzyl)-cyclohexane-1,4-diamine dihydrochloride] | 2.9 | 10.4 | 3.6 | 25 | 99.8
COc1cc(CN[C@H]2CC[C@H](Nc3ccnc4cc(Cl)ccc34)CC2)cc(OC)c1OC.Cl.Cl [Example 112, trans-N1-(7-Chloro-quinolin-4-yl)-N4-(3,4,5-trimethoxy-benzyl)-cyclohexane-1,4-diamine dihydrochloride] | 4.3 | 17.2 | 4.0 | 99 | 99.9
CN(C)c1ccc(CN[C@H]2CC[C@H](Nc3ccnc4cc(Cl)ccc34)CC2)cc1.Cl.Cl.Cl [Example 113, trans-N1-(7-Chloro-quinolin-4-yl)-N4-(4-dimethylamino-benzyl)-cyclohexane-1,4-diamine trihydrochloride] | 3 | 7.6 | 2.5 | 99.7 | 99.9
Cl.Cl.Fc1cccc(F)c1CN[C@H]1CC[C@H](Nc2ccnc3cc(Cl)ccc23)CC1 [Example 114, trans-N1-(7-Chloro-quinolin-4-yl)-N4-(2,6-difluoro-benzyl)-cyclohexane-1,4-diamine dihydrochloride] | 2.9 | 8.4 | 2.9 | 99 | 99.9
